# PMC6453136 (Cellular signalling, 2018)
# How the values were obtained:
# [1] = test system: cAMP-induced Gα2βγ subunit dissociation; assay: BRET^2 assay after drug pretreatment; assay type: cell-based, Dictyostelium; settings: for effect on interaction of Gα2 with βγ in resting cells (basal BRET^2 signal): 5 μM LatA or 50 μM Benomyl for 15 min
# [2] = test system: 5.5 h-differentiated wild-type cells; assay: DIC and fluorescence confocal imaging of drug-treated cells; assay type: cell-based, Dictyostelium; settings: 5 μM LatA or 50 μM Benomyl for 15 min; Lifeact-GFP / tubulin-GFP reporters
# [3] = target: T1, cAR1 (Dictyostelium discoideum, UniProt P13773)
# T1 sequence (P13773 1-392): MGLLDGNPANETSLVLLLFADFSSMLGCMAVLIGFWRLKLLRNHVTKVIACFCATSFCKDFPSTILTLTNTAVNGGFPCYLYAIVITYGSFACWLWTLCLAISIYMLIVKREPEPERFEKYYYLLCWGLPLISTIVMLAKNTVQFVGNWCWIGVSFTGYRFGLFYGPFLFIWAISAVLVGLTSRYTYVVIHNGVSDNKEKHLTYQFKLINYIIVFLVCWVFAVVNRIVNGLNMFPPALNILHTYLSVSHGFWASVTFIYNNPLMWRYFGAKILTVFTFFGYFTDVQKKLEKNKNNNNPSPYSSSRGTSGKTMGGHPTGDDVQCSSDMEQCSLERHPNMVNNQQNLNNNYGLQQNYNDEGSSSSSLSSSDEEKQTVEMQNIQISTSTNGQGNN
# [4] = target: T1, cAR1; assay: cell-based
# [5] = test system: cAMP binding sites; settings: 10 mM caffeine, whole cells; cited from earlier work
smiles,measurement,setting,value
CCCCNC(=O)n1c(NC(=O)OC)nc2ccccc21 [Benomyl],effect on interaction of Gα2 with βγ in resting cells (basal BRET^2 signal),[1],did not affect
same,effect on cell morphology,[2],loss of morphological cell polarity
"Nc1ncnc2c1ncn2[C@@H]1O[C@@H]2COP(=O)(O)O[C@H]2[C@H]1O [cAMP, cyclic adenosine monophosphate]",time to steady state of BRET^2 loss after stimulation,[3]; 10 μM cAMP,approximately 20 s
same,decrease in total BRET^2 signal,"[3]; 10 μM cAMP, Gα2GFP^2/Rluc2Gβ/gα2^− cells",30–40
same,total BRET^2 signal after stimulation,"[3]; 10 μM cAMP, Gα2GFP^2/Rluc2Gβ/gα2^− cells, 63 mBU before stimulation",36 mBU
same,G protein subunit dissociation in cells lacking cAR1,"[3]; 10 μM cAMP, carA^− and carA^−carC^− cells, undifferentiated and 5.5 h-differentiated",fails to induce considerable G protein subunit dissociation
same,cAMP concentration inducing the full G protein dissociation response,[3]; Gα2GFP^2/Rluc2Gβ/gα2^− cells,500 nM
same,G protein subunit dissociation in cells lacking only cAR3 (extent and potency),[3]; carC^− cells,comparable to that in wild-type cells
"Nc1ncnc2c1ncn2[C@H]1C[C@H](O)[C@@H](COP(=O)(O)O)O1 [2’-dcAMP, 2’-deoxyadenosine-5’-monophosphate]",EC50,[4],~17 nM
"C/C1=C/C(=O)O[C@@H]2C[C@@H](CC[C@H](C)/C=C\C=C\CC1)O[C@@](O)([C@@H]1CSC(=O)N1)C2 [LatA, Latrunculin A]",effect on interaction of Gα2 with βγ in resting cells (basal BRET^2 signal),[1],did not affect
same,effect on cell morphology,[2],loss of morphological cell polarity
Cn1c(=O)c2c(ncn2C)n(C)c1=O [caffeine],effect of caffeine on potency of cAMP-induced Gα2βγ subunit dissociation,"[1]; 5 mM caffeine, in parallel to untreated cells",significantly increased potency
same,effect on cAMP binding sites,[5],conversion of most binding sites to the low affinity conformation
